According to patent publication US12570612B2, “Substituted nitrogen heterocyclic compound and anesthetic effect thereof” (priority 2019, dated 2026):
Like-named read-outs stand apart in the source and are kept apart here.

Key:
Sprague-Dawley rats [1] = experiment: animal or person; format: in vivo; conditions: rats
Excerpt: (§1) Evaluating indicator: The end point of anesthesia: LORR was used as the end point of anesthesia; General anesthesia effect: the disappearance of forepaw righting reflex in rats lasting for 30 seconds is taken as the index of general anesthesia effect; Anesthesia recovery index: the recovery of rat forepaw righting reflex was used as the index of anesthesia recovery.

Sprague-Dawley rats [2] = experiment: Pharmacological effect and adverse reactions under the equivalent dose (2ED50), Group C compounds; format: in vivo
Excerpt: (§2) Evaluation index: onset time: from the completion of drug injection to the disappearance of forepaw righting reflex in rats; Duration of anesthesia: the time from the disappearance of rat forepaw righting reflex to the recovery of rat forepaw righting reflex; Recovery time of anesthesia: the time from the […] to complete recovery;

adrenal cortex function = experiment: Adrenocortical function in rats: corticosterone after dexamethasone and ACTH, Group C compounds
Protocol: Instruments and equipment: multi-function ion meter (METTLER TOLEDO, models: SevenMulti), pipetting gun (Eppendorf, specifications: 1000 ul, 200 ul, 100 ul, 10 ul), electronic balance (model: ME215S, manufacturers: Sartorius, Germany), the timer. Experimental Method: Adult male Sprague-Dawley rats (250-300 g) were selected for the experiment (n=8), all the experiment were started in the morning. Place indwelling needles in tail vein of rats and inject dexamethasone (0.5 mg/kg). The first time of blood collection (S1) is in two hours later, and give dexamethasone (0.2 mg/kg). […] All the drugs were administered in a volume of 0.6 ml and at a rate of 0.1 ml/s. 15 min later, exogenous ACTH (25 ug/kg) was injected. Another blood sample was collected after 30 min(S2). The blood samples were left standing at room temperature for 30-60 min, followed by centrifugation at 3500 rpm for 10 min. The supernatant was taken and centrifuged again at 15000 rpm for 5 min before being frozen and stored in a −20° C. refrigerator.
Evaluation indexes: The concentration of the corticosterone in the supernatant of rats before and after given drugs.

SD rats [3] = system: SD rats
Protocol: (§3) Experimental Methods: Adult male SD rats with body weight ranging from 250 g to 350 g were selected for continuous infusion test.
(§4) Evaluation indexes: the time from the beginning of continuous infusion to the […] of sedation in rats; the time from the cessation of infusion to the restoration of the forepaw turning reflex after 1 hour of continuous infusion; the time from the cessation of infusion to the complete restoration of rats after 1 hour of continuous infusion.

Sprague-Dawley rats [4] = format: in vivo; conditions: tail vein
Sprague-Dawley rats [5] = experiment: animal or person; format: in vivo; conditions: rats; for ED50: Rattus norvegicus, LORR, up and down method, tail vein, class symbols, read-out: ED50
Excerpt: as §1, with “the disappearance of forepaw righting reflex (lorr)” for “LORR”

Sprague-Dawley rats [6] = experiment: Pharmacological effect and adverse reactions under the equivalent dose (2ED50), Group D compounds; format: in vivo; conditions: for Righting reflex duration / Sedation duration / Onset time: 2ED50, tail vein, rats, n=8; for Adverse reaction: Convulsions / Adverse reaction: Cough, broken-winded / Adverse reaction: Euphoria / Adverse reaction: Four limbs rigidity / Adverse reaction: Red urine / Adverse reaction: Slower breathing, Tetany convulsion / Adverse reaction: Systemic stiffness, Convulsions, Opisthotonus / Adverse reaction: Tongue stretching / Adverse reaction: Tremor: equivalent dose (2 × ED50), number of rats of n = 8
Excerpt: as §2

SD rats [7] = conditions: for After the infusion is stopped: Righting reflex recovery time / Recovery time after stopping infusion: after 1 hour continuous infusion at 2 times the MIR; for After the infusion is stopped: Righting reflex recovery time / Recovery time after stopping infusion / Sedation onset time: SD rats; for Sedation onset time: continuous tail vein infusion at 2 times the MIR
Protocol: as §3, §4

Sprague-Dawley rats [8] = format: in vivo; conditions: tail vein; remark: listed apart in the source
[9] = equivalent dose (2ED50), number of rats of n = 8
[10] = after 1 hour continuous infusion at 2 times the MIR, SD rats
[11] = continuous infusion 2 x MIR 1 hour, rats affected/rats

`CC#CCOCC(=O)c1cncn1[C@H](C)c1ccccc1` [Compound C27] was tested, and the ED50 (Sprague-Dawley rats [1]; LORR, up and down method, tail vein, class symbols) was “++ (++ means that the measured ED50 is in the range of 0.50-1.00 mg/kg (excluding 0.50 mg/kg, including 1.00 mg/kg))”, the Approximate therapeutic index (Sprague-Dawley rats [1]) was greater than 16.6 and the Righting reflex duration (Sprague-Dawley rats [2]; 2ED50, tail vein, rats, n=8) was 1.48 ± 0.14 min. For the same compound, the Sedation duration (Sprague-Dawley rats [2]; 2ED50, tail vein, rats, n=8) was 4.39 ± 0.94 min, the Onset time (Sprague-Dawley rats [2]; 2ED50, tail vein, rats, n=8, unit s) was less than 30 s and the “Adverse reaction: Convulsions” value (Sprague-Dawley rats [2]; [9]) was 0. The “Adverse reaction: Cough, broken-winded” value (Sprague-Dawley rats [2]; [9]) was 0, the “Adverse reaction: Euphoria” value (Sprague-Dawley rats [2]; [9]) was 0 and the “Adverse reaction: Red urine” value (Sprague-Dawley rats [2]; [9]) was 8. For the same compound, the “Adverse reaction: Slower breathing, Tetany convulsion” value (“Adverse reaction: Slower breathing” for short) (Sprague-Dawley rats [2]; [9]) was 0, the “Adverse reaction: Systemic stiffness, Convulsions, Opisthotonus” value (“Adverse reaction: Systemic stiffness” for short) (Sprague-Dawley rats [2]; [9]) was 1 and the “Adverse reaction: Tongue stretching” value (Sprague-Dawley rats [2]; [9]) was 2. The “Adverse reaction: Tremor” value (Sprague-Dawley rats [2]; [9]) was 0, the “Adverse reaction: the four limbs rigidity” value (Sprague-Dawley rats [2]; [9]) was 0 and the “Give ACTH 30min later(S2) corticosterone concentration” value (adrenal cortex function; drug at 2ED50, 30 min after ACTH 25 ug/kg) was 253.11 ± 34.56. For the same compound, the “Baseline(S1) corticosterone concentration” value (adrenal cortex function; two hours after dexamethasone 0.5 mg/kg, before drug) was 180.33 ± 46.70, the “After the infusion is stopped: Righting reflex recovery time” value (shortened to “After the infusion is stopped”) (SD rats [3]; [10]) was 12 to 16 min and the “Recovery time after stopping infusion” value (SD rats [3]; [10]) was 15 to 20 min. The “Types and incidence of adverse reactions: Red urine” value (“Types and incidence … Red urine” for short) (SD rats [3]; [11]) was 6/6, the “Types and incidence of adverse reactions: Tremor” value (“Types and incidence … Tremor” below) (SD rats [3]; [11]) was 5/6 and the Sedation onset time (SD rats [3]; continuous tail vein infusion at 2 times the MIR, SD rats) was less than 5 min. For the same compound, the Minimal lethal dose (Sprague-Dawley rats [4]) was greater than 13.6 mg/kg.
With `COC(OC)(OC)C(=O)c1cncn1[C@H](C)c1ccccc1` [Compound D77] the ED50 (Sprague-Dawley rats [5]) was 0.04 to 0.5 mg/kg, the Approximate therapeutic index (Sprague-Dawley rats [5]) was greater than 21.0 and the Righting reflex duration (Sprague-Dawley rats [6]) was 1.43 ± 0.22 min. For the same compound, the Sedation duration (Sprague-Dawley rats [6]) was 3.68 ± 0.56 min, the Onset time (Sprague-Dawley rats [6]; unit s) was less than 30 s and the “Adverse reaction: Convulsions” value (Sprague-Dawley rats [6]) was 0. For the same compound, the “Adverse reaction: Cough, broken-winded” value (Sprague-Dawley rats [6]) was 0, the “Adverse reaction: Euphoria” value (Sprague-Dawley rats [6]) was 0 and the “Adverse reaction: Four limbs rigidity” value (Sprague-Dawley rats [6]) was 0. The “Adverse reaction: Red urine” value (Sprague-Dawley rats [6]) was 8, the “Adverse reaction: Slower breathing” value (Sprague-Dawley rats [6]) was 0 and the “Adverse reaction: Systemic stiffness” value (Sprague-Dawley rats [6]) was 8. The “Adverse reaction: Tongue stretching” value (Sprague-Dawley rats [6]) was 1, the “Adverse reaction: Tremor” value (Sprague-Dawley rats [6]) was 0 and the “After the infusion is stopped” value (SD rats [7]) was 12 to 16 min. For the same compound, the “Recovery time after stopping infusion” value (SD rats [7]) was 20 to 30 min, the “Types and incidence … Red urine” value (SD rats [7]; [11]) was “Red urine(6/6), Tongue” and the “Types and incidence of adverse reactions: Tongue stretching” value (SD rats [7]; [11]) was “stretching(3/6), Tremor(3/6)”. For the same compound, the “Types and incidence … Tremor” value (SD rats [7]; [11]) was “stretching(3/6), Tremor(3/6)”, the Sedation onset time (SD rats [7]) was less than 5 min and the Minimal lethal dose (Sprague-Dawley rats [8]) was greater than 1.4 mg/kg.
`COC(OC)C(=O)c1cc(F)nn1[C@H](C)c1ccccc1` [Compound D25] was tested, and the ED50 (Sprague-Dawley rats [5]) was 0.5 to 1 mg/kg, the Approximate therapeutic index (Sprague-Dawley rats [5]) was greater than 10.2 and the Righting reflex duration (Sprague-Dawley rats [6]) was 1.52 ± 0.26 min. For the same compound, the Sedation duration (Sprague-Dawley rats [6]) was 6.82 ± 0.27 min, the Onset time (Sprague-Dawley rats [6]; unit min) was less than 60 s and the “Adverse reaction: Convulsions” value (Sprague-Dawley rats [6]) was 0. The “Adverse reaction: Cough, broken-winded” value (Sprague-Dawley rats [6]) was 0, the “Adverse reaction: Euphoria” value (Sprague-Dawley rats [6]) was 0 and the “Adverse reaction: Four limbs rigidity” value (Sprague-Dawley rats [6]) was 1. For the same compound, the “Adverse reaction: Red urine” value (Sprague-Dawley rats [6]) was 8, the “Adverse reaction: Slower breathing” value (Sprague-Dawley rats [6]) was 0 and the “Adverse reaction: Systemic stiffness” value (Sprague-Dawley rats [6]) was 0. The “Adverse reaction: Tongue stretching” value (Sprague-Dawley rats [6]) was 0, the “Adverse reaction: Tremor” value (Sprague-Dawley rats [6]) was 2 and the “After the infusion is stopped” value (SD rats [7]) was 16 to 24 min. The “Recovery time after stopping infusion” value (SD rats [7]) was 30 to 40 min, the “Types and incidence of adverse reactions: Hindlimb rigidity” value (SD rats [7]; [11]) was “Hindlimb rigidity(1/6)” and the “Types and incidence … Red urine” value (SD rats [7]; [11]) was 6/6. For the same compound, the “Types and incidence … Tremor” value (SD rats [7]; [11]) was 2/6, the Sedation onset time (SD rats [7]) was less than 5 min and the Minimal lethal dose (Sprague-Dawley rats [8]) was greater than 8.4 mg/kg.
